How the values were obtained:
human FPR2 = human FPR2 (Homo sapiens (Human), UniProt P25090); assay: FPR2 cyclic adenosine monophosphate (cAMP) assay; assay type: cell-based; conditions: CHO cells overexpressing human FPR2; forskolin 5 μM, IBMX 200 μM; inhibition of cAMP production, HTRF; read-out: hFPR2 cAMP2 EC50
Description: (§1) FPR2 and FPR1 Cyclic Adenosine Monophosphate (cAMP) Assays. A mixture of forskolin (5 μM final for FPR2 or 10 μM final for FPR1) and IBMX (200 μM final) were added to 384-well Proxiplates (Perkin-Elmer) pre-dotted with test compounds in DMSO (1% final) at final concentrations in the range of 0.020 nM to 100 μM. Chinese Hamster Ovary cells (CHO) overexpressing human FPR1 or human FPR2 receptors were cultured in F-12 (Ham's) medium supplemented with 10% qualified FBS, 250 μg/ml zeocin and 300 μg/ml hygromycin (Life Technologies). Reactions were initiated by adding 2,000 human FPR2 cells per well or 4,000 human FPR1 cells per well in Dulbecco's PBS (with calcium and magnesium) (Life Technologies) supplemented with 0.1% BSA (Perkin-Elmer). The reaction mixtures were incubated for 30 min at room temperature. The level of intracellular cAMP was determined using the HTRF HiRange cAMP assay reagent kit (Cisbio) according to manufacturer's instruction. Solutions of cryptate conjugated anti-cAMP and d2 fluorophore-labelled cAMP were made in a supplied lysis buffer separately. Upon completion of the reaction, the cells were lysed with equal volume of the d2-cAMP solution and anti-cAMP solution. After a 1-h room temperature incubation, time-resolved fluorescence intensity was measured using the Envision (Perkin-Elmer) at 400 nm excitation and dual emission at 590 nm and 665 nm. A calibration curve was constructed with an external cAMP standard at concentrations ranging from 1 μM to 0.1 pM by plotting the fluorescent intensity ratio from 665 nm emission to the intensity from the 590 nm emission against cAMP concentrations. The potency and activity of a compound to inhibit cAMP production was then determined by fitting to a 4-parametric logistic equation from a plot of cAMP level versus compound concentrations.

human FPR1 = human FPR1 (Homo sapiens (Human), UniProt P21462); assay: FPR1 cyclic adenosine monophosphate (cAMP) assay; assay type: cell-based; conditions: CHO cells overexpressing human FPR1; forskolin 10 μM, IBMX 200 μM; inhibition of cAMP production, HTRF; read-out: hFPR1 cAMP EC50
Description: as §1, with “After a 1-h room temperature incubation, time-resolved fluorescence intensity was measured using the Envision (Perkin-Elmer) at 400 nm excitation and dual emission at 590 nm and 665 nm. A calibration curve was constructed with an external cAMP standard at concentrations ranging from 1 μM to 0.1 pM by plotting the fluorescent intensity ratio from 665 nm emission to the intensity from the 590 nm emission against cAMP concentrations.” left out

Chain of human FPR1 (P21462 whole entry): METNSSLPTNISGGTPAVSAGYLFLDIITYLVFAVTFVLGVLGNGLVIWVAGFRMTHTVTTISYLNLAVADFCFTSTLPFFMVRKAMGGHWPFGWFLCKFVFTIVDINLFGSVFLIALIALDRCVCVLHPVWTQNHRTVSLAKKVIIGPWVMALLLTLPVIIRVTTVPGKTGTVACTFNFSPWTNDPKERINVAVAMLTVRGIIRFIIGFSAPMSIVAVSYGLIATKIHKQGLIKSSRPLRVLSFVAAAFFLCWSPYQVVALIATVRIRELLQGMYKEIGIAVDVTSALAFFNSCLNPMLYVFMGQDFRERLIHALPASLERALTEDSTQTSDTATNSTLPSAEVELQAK
Chain of human FPR2 (P25090 whole entry): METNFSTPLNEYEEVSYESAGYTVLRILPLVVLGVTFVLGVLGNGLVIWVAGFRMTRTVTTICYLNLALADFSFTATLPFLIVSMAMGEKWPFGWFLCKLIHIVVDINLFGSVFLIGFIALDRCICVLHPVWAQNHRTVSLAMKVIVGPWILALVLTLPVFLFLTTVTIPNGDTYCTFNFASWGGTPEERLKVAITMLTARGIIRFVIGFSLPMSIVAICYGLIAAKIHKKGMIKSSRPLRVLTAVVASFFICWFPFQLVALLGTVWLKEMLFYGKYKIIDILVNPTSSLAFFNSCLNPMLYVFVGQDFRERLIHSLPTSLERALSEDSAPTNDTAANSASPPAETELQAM

Row | EC50 (human FPR2) [nM] | EC50 (human FPR1) [nM] | SMILES
1 | 7.2 | 110 | O=C(Nc1ccc(C(F)(F)F)cc1F)N[C@@H]1CCN(c2ccc(-c3cccc4c3S(=O)(=O)NC4)c(F)c2F)C1=O [Example 97]
2 | 2.9 | 720000 | CP(C)(=O)c1ccccc1-c1ccc(N2CC[C@@H](NC(=O)Nc3ccc(Cl)s3)C2=O)c(F)c1F [Example 135]
3 | 18 | 920 | CP(C)(=O)c1ccccc1-c1ccc(N2CC(CO)[C@@H](NC(=O)Nc3ccc(Cl)cc3F)C2=O)c(F)c1F (stereo partly shown) [Example 127]
4 | 1.4 | 86 | CP(C)(=O)c1ccccc1-c1ccc(N2CC[C@@H](NC(=O)Nc3ccc(C(F)(F)F)cc3F)C2=O)c(Cl)c1Cl [Example 80]
5 | 0.41 | 0.99 | CP(C)(=O)c1ccccc1-c1ccc(N2CC[C@@H](NC(=O)Nc3ccc(Cl)cc3F)C2=O)c(F)c1C(F)(F)F [Example 83]
6 | 0.27 | 390 | CP(C)(=O)c1ccccc1-c1ccc(N2C(=O)[C@H](NC(=O)Nc3ccc(Cl)cc3F)C[C@H]2CO)c(F)c1F [Example 112, 1-(4-Chloro-2-fluorophenyl)-3-((3R,5S)-1-(2′-(dimethylphosphoryl)-2,3-difluoro-[1,1′-biphenyl]-4-yl)-5-(hydroxymethyl)-2-oxopyrrolidin-3-yl)urea]
7 | 17 | 320 | COc1ncccc1-c1ccc(N2CC[C@@H](NC(=O)Nc3ccc(Cl)cc3F)C2=O)c(F)c1F [Example 118]
8 | 0.39 | 590 | CC1(C)CN(c2ccc(-c3cccnc3P(C)(C)=O)c(F)c2F)C(=O)[C@@H]1NC(=O)Nc1ccc(Cl)cc1F [Example 113]
9 | 0.85 | 21 | CP(C)(=O)c1c(F)cccc1-c1ccc(N2CC[C@@H](NC(=O)Nc3ccc(C(F)(F)F)cc3F)C2=O)c(F)c1Cl [Example 86]
10 | 1 | 24 | CC1C[C@@H](NC(=O)Nc2ccc(C(F)(F)F)cc2F)C(=O)N1c1ccc(-c2cccnc2P(C)(C)=O)c(F)c1F (stereo partly shown) [Example 128]
11 | 2.5 | 780 | O=C(Nc1ccc(Cl)cc1F)N[C@@H]1C[C@@H](CO)N(c2ccc(-c3ccccc3F)c(F)c2F)C1=O [Example 82]

The remaining lines, values behind:

Row | SMILES | EC50 (human FPR2) [nM] | EC50 (human FPR1) [nM]
12 | COc1ccc(NC(=O)N[C@@H]2CCN(c3ccc(-c4ccccc4S(C)(=O)=O)c(F)c3F)C2=O)cc1 [Example 54] | 5.5 | 900
13 | O=C(Nc1ccc(C(F)(F)F)cc1F)N[C@@H]1CCN(c2ccc(-c3ccccc3CO)c(F)c2F)C1=O [Example 31] | 4 | 430
14 | CS(=N)(=O)c1ccccc1-c1ccc(N2CC[C@@H](NC(=O)Nc3ccc(Cl)cc3F)C2=O)c(F)c1F (stereo partly shown) [Example 58] | 6.3 | 610
15 | CS(=O)(=O)Nc1ccccc1-c1ccc(N2CC[C@@H](NC(=O)Nc3ccc(C(F)(F)F)cc3)C2=O)c(F)c1F [Example 6] | 1 | 190
16 | CP(C)(=O)c1ccccc1-c1ccc(N2CC[C@@H](NC(=O)Nc3ccc(OC(F)(F)F)cc3)C2=O)c(F)c1F [Example 51] | 8.2 | 1300
17 | CS(=N)(=O)c1ccccc1-c1ccc(N2CC[C@@H](NC(=O)Nc3ccc(Cl)cc3F)C2=O)c(F)c1F (stereo partly shown) [Example 59] | 1.7 | 140
18 | CP(C)(=O)c1ncccc1-c1ccc(N2CC[C@@H](NC(=O)Nc3ccc(Cl)cc3F)C2=O)c(F)c1F [Example 74] | 2.2 | 140
19 | CP(C)(=O)c1ccccc1-c1ccc(N2CC[C@@H](NC(=O)Nc3ncc(Cl)cc3F)C2=O)c(F)c1F [Example 56] | 7.5 | 7700
20 | CP(C)(=O)c1ncccc1-c1ccc(N2CC[C@@H](NC(=O)Nc3ccc(C(F)(F)F)cc3F)C2=O)c(F)c1F [Example 73, (R)-1-(1-(4-(2-(dimethylphosphoryl)pyridin-3-yl)-2,3-difluorophenyl)-2-oxopyrrolidin-3-yl)-3-(2-fluoro-4-(trifluoromethyl)phenyl)urea] | 0.89 | 170
